In patent publication US10351559B2, “Maleate salts of a B-RAF kinase inhibitor, crystalline forms, methods of preparation, and uses therefore” (BeiGene, Ltd., priority 2015, dated 2019):
pIC50: −log10 of the molar value. Counter-ions that a name gives are not always drawn.

Legend:
[1] = pharmacokinetic study (LC-MS/MS); format: in vivo, Sprague-Dawley rats; conditions: rats
Text: The fully-validated LC-MS/MS method was well used for the pharmacokinetic (PK) studies of Crystalline Form A* of Compound 1 Sesqui-Maleate in Sprague-Dawley rats and beagle dogs following single- and multiple-dose administrations.

[2] = target: T1, HER2 (aa676-1255) (Homo sapiens, UniProt P04626); test: HTRF KinEASE-TK kinase assay; format: biochemical
T1 construct: HER2 (aa676-1255, recombinant protein purified from insect expression system); made in house; host or cells: insect expression system
T1 sequence (P04626 676-1255): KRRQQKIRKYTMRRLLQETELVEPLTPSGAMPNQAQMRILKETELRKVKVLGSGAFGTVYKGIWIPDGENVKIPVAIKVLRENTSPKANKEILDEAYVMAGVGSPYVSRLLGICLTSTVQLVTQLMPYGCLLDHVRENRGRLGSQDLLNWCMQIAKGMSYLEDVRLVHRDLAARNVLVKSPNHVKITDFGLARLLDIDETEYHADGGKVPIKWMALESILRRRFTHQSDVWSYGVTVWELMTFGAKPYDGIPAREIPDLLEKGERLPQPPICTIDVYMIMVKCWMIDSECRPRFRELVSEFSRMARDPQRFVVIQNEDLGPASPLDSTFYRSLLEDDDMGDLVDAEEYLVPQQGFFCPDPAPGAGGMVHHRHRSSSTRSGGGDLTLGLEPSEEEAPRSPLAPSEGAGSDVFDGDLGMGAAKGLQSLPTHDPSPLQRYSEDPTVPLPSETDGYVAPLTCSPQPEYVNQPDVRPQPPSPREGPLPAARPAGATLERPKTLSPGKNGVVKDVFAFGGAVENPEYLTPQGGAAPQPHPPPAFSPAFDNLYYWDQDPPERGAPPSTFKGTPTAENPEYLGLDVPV
Experimental: (§1) Crystalline Form A* of Compound 1 Sesqui-Maleate was tested against recombinant EGFR/EPHA2/BTK (from Carna Biosciences), ITK/TEC/SRC/PDGFR-beta/TXK/FLT3/VEGFR2/RET (from Life Technologies), and HER2 (aa676-1255, recombinant protein purified from insect expression system) in HTRF KinEASE-TK assay from Cisbio Bioassays according to the manufacturer's instructions. The assay was carried out in a reaction mixture containing kinases, ATP at KM concentration, biotinylated peptide substrate (61TK0BLC, Cisbio Bioassays) and Crystalline Form A* of Compound 1 Sesqui-Maleate. […] After reaction, stop/detection solution was added according to the manufacture's instruction. The stop/detection solution contained Eu+ cryptate conjugated antiphosphotyrosine antibody (61T66kLB, CisBio Bioassays) and Streptavidin-XL665 (610SAXLB, CisBio Bioassays) in buffer containing 25 mM Tris pH7.4, 400 mM KF, 50 mM EDTA, 0.01% BSA, 0.01% Triton X-100. The TR-FRET signals (ratio of fluorescence emission at 665 nm over emission at 620 nm with excitation at 337 nm wavelength) were recorded on a PHERAstar FS plate reader (BMG Labtech) after 1 hr incubation. Phosphorylation of biotinylated peptide substrate led to the binding of both Eu+ cryptate conjugated antiphosphotyrosine antibody and streptaviding-XL665 to the biotinylated peptide. The close proximity of the donor (Eu+ cryptate) and acceptor (XL665) fluorophore led to a high degree of fluorescence resonance energy transfer from the donor fluorophore (at 620 nm) to the acceptor fluorophore (at 665 nm). The IC50 for Crystalline Form A* of Compound 1 Sesqui-Maleate was derived from fitting the dose-response % inhibition data to the four-parameter logistic model by Graphpad Prism software.

[3] = target: T2, VEGFR2 (Homo sapiens, UniProt P35968); test: HTRF KinEASE-TK kinase assay; format: biochemical
T2 construct: purchased Life Technologies
T2 sequence (P35968 20-1356): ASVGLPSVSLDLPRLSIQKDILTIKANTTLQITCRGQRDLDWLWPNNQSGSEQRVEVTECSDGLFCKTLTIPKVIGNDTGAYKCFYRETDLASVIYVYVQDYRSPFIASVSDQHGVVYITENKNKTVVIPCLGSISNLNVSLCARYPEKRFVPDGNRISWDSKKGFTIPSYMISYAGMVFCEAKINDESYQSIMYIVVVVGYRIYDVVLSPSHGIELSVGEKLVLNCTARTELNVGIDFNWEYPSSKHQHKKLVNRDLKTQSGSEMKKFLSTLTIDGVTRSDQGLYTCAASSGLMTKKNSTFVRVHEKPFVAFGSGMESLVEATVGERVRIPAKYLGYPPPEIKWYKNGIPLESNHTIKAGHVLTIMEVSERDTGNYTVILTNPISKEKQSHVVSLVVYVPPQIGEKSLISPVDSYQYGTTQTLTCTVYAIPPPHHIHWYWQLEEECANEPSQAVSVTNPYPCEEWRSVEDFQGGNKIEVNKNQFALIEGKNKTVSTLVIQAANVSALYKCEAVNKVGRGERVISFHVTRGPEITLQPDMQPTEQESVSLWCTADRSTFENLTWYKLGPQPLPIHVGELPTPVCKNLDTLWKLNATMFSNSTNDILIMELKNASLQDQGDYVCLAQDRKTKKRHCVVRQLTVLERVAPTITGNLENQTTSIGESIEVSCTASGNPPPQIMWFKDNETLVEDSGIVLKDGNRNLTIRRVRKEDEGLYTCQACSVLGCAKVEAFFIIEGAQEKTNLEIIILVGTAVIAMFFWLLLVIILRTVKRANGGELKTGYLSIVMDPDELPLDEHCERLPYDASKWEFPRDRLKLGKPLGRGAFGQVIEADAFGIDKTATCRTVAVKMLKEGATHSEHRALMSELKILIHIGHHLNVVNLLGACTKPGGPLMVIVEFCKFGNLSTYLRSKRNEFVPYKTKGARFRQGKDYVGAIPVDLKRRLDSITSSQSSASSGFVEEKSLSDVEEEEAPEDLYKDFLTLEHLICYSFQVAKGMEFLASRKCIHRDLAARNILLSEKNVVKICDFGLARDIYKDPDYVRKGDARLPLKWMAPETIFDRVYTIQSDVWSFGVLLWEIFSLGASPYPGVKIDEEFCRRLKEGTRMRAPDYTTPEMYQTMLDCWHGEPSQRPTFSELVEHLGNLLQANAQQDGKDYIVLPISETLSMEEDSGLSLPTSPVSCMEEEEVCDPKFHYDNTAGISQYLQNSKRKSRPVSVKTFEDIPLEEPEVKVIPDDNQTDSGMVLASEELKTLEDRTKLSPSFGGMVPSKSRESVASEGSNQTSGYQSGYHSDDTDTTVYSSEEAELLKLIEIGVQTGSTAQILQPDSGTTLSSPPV
Experimental: as §1

[4] = target: T3, WT-EGFR (Homo sapiens, UniProt P00533); test: HTRF KinEASE-TK kinase assay; format: biochemical
T3 construct: purchased Carna Biosciences
T3 sequence (P00533 25-1210): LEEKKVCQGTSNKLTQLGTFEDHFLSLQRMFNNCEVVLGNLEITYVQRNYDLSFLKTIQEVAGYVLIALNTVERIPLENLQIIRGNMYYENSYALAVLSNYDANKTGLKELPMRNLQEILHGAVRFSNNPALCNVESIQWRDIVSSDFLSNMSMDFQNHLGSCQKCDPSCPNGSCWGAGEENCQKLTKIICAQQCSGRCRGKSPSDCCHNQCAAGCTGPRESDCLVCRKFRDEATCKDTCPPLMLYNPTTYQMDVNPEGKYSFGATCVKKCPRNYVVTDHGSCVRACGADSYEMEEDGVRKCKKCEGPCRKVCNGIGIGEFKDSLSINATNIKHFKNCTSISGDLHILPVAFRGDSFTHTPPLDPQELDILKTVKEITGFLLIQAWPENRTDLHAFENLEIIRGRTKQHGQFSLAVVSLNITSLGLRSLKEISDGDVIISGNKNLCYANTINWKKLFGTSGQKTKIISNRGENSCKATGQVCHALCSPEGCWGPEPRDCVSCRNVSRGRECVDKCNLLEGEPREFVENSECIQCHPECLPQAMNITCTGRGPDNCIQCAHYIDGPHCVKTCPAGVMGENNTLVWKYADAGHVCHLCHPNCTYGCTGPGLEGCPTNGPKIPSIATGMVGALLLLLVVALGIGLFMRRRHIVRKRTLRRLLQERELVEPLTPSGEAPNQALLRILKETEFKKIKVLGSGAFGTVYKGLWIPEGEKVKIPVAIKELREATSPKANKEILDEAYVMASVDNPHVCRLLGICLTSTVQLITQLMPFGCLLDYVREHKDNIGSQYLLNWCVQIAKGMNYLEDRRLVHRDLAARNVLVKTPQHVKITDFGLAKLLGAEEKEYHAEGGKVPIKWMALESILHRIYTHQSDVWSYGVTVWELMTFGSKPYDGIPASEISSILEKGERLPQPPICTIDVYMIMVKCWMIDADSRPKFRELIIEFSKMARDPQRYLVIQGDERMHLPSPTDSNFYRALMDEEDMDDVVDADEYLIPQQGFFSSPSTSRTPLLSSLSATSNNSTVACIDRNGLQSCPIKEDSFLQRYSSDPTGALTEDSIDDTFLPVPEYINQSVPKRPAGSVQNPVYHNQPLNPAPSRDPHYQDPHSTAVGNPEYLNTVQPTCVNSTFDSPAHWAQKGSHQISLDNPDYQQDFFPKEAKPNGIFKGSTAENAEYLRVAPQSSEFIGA
Experimental: as §1

[5] = nonclinical toxicity and safety pharmacology program
Experimental: A comprehensive nonclinical toxicity study program, including 28-day GLP studies in rats and dogs and several investigational studies, was conducted for the evaluation of the preclinical safety of Compound 1 Sesqui-Maleate (Crystalline Form A*). These studies took account the available regulatory guidance for preclinical development of anticancer drugs.

[6] = target: CYP2C8 (Homo sapiens, UniProt P10632); test: CYP inhibition; format: in vitro ADME
Sequence of CYP2C8 (P10632 whole entry): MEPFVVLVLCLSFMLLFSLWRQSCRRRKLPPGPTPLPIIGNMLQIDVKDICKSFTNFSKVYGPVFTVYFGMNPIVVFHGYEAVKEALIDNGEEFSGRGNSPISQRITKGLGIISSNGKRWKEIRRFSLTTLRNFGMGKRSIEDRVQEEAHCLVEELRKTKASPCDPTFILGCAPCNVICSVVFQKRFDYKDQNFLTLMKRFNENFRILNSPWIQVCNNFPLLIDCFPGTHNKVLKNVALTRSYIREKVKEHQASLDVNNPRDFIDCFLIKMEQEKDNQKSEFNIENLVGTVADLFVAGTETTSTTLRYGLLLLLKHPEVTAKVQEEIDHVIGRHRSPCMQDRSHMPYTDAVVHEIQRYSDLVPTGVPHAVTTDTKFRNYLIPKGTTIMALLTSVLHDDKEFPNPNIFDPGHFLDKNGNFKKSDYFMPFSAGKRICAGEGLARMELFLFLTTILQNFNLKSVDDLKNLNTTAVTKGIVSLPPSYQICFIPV

[7] = tested on: WiDr colorectal carcinoma (B-RAF V600E mutation) xenografts; test: xenograft efficacy study; format: in vivo, BALB/C nude mice; conditions: WiDr xenografts in nude mice, oral
Experimental: (§2) Human cancer cells were inoculated subcutaneously in the right axilla region of BALB/C nude mice to generate tumor xenografts. On the day of implantation, the cell culture medium was replaced with fresh medium. Three hours later, the media was removed and the cells were collected and re-suspended in cold (4° C.) PBS prior to inoculation. The right axilla region of each mouse was cleaned with 70% ethanol prior to cell inoculation. Each animal was injected subcutaneously with desired cells in 200 μl of cell suspension in the right front flank via a 26-gauge needle. After implantation tumor volumes were measured twice weekly in two dimensions using a calliper. Tumor volume was calculated using the formula: V=0.5×(a×b^2) where a and b are the long and short diameters of the tumor, respectively.
(§3) For in vivo efficacy studies, when the average tumor size reaches 100˜200 mm^3, animals were assigned into desired number of groups with 6-10 mice per group using a stratified randomization procedure. The groups consisted of a control group (no drug treatment), and different dose levels of Crystalline Form A* of Compound 1 Sesqui-Maleate treatment groups (ranged from 1-20 mg/kg). All doses were based on free-base weight. Drugs were administered by oral gavage once (qd) or twice (bid) daily; dosing frequency depended on the individual case for tumor growth. Treatments were administered by oral gavage (p.o.) in a volume of 10 ml/kg body weight. Body weight was assessed immediately before dosing and the volume dosed was adjusted accordingly. Individual body weights and tumor volumes were determined twice weekly, with mice being monitored daily for clinical signs of toxicity for the duration of the study. Mice were euthanized using carbon dioxide once their tumor volume reached 2000 mm^3, the tumor was ulcerated, or body weight loss exceeded 20%. All group data was analyzed using the t test. If the p value was <0.05, it was considered to be statistically significant.
(§4) Tumor growth inhibition (TGI) was calculated using the following formula: […]

[8] = tested on: human A375 melanoma (B-RAF V600E mutation) xenografts; test: xenograft efficacy study; format: in vivo, BALB/C nude mice; conditions: A375 xenografts in nude mice, oral
Experimental: as §2, §3, §4

[9] = tested on: HCC827 lung carcinoma (EGFR mutation) xenografts; test: xenograft efficacy study; format: in vivo, BALB/C nude mice; conditions: HCC827 xenografts in nude mice, oral
Experimental: as §2, §3, §4

[10] = tested on: HT29 colorectal carcinoma (B-RAF V600E mutation) xenografts; test: xenograft efficacy study; format: in vivo, BALB/C nude mice; conditions: HT29 xenografts in nude mice, oral
Experimental: as §2, §3, §4

[11] = tested on: A431 epidermoid carcinoma (EGFR overexpression) xenografts; test: xenograft efficacy study; format: in vivo, BALB/C nude mice; conditions: A431 xenografts in nude mice, oral
Experimental: as §2, §3, §4

[12] = tested on: Colo205 colorectal carcinoma (B-RAF V600E mutation) xenografts; test: xenograft efficacy study; format: in vivo, BALB/C nude mice; conditions: Colo205 xenografts in nude mice, oral
Experimental: as §2, §3, §4

[13] = tested on: LOX melanoma (B-RAF V600E mutation) xenografts; test: xenograft efficacy study; format: in vivo, BALB/C nude mice; conditions: LOX xenografts in nude mice, oral
Experimental: as §2, §3, §4

## O=C1CCc2c(Oc3ccc4c(c3)[C@@H]3[C@H](O4)[C@H]3c3nc4ccc(C(F)(F)F)cc4[nH]3)ccnc2N1 [5-(((1R,1aS,6bR)-1-(6-(trifluoromethyl)-1H-benzo[d]imidazol-2-yl)-1a,6b-dihydro-1H-cyclopropa[b]benzofuran-5-yl)oxy)-3,4-dihydro-1,8-naphthyridin-2(1H)-one sesqui-maleate salt]
[1]; Sprague-Dawley, rat, in vivo, po
  bioavailability: 51 to 102%
[1]; Sprague-Dawley, rat, in vivo, after oral administration, read-out: elimination half-life
  half-life: 264 to 564 min
[1]
  accumulation after multiple dosing: ~2 fold
[1]; 0.5 to 15 mg/kg
  kinetics over dose range: linear
[2]
  enzyme inhibition: weak inhibition
[2]; ATP at KM
  pIC50: 5.59
[3]
  enzyme inhibition: potently inhibits
[3]; ATP at KM
  pIC50: 7.66
[4]; EGFR
  enzyme inhibition: potently inhibits
[4]; WT-EGFR, ATP at KM
  pIC50: 7.36
[5]; additional toxicity testing
  teratogenic, mutagenic and reproductive toxicity: no teratogenic, mutagenic and reproductive toxicity
[5]; incl. 28-day GLP studies in rats and dogs
  toxicology and safety pharmacology profile: favorable toxicology and safety pharmacology profile
[5]; safety pharmacological test
  effect on autonomic nervous system activity or the central nervous system: no effect
  effect on respiration, blood pressure and circulatory function: no effect
[6]
  pIC50: 5.99
[7]
  antitumor activity: marked antitumor activity
[8]
  antitumor activity: marked antitumor activity
[9]
  antitumor activity: marked antitumor activity
[10]
  antitumor activity: marked antitumor activity
[11]
  antitumor activity: marked antitumor activity
[12]
  antitumor activity: marked antitumor activity
[13]
  antitumor activity: marked antitumor activity
